Test results as given in patent publication US20240148821A1, “PHARMACEUTICAL USE OF CYCLIC PEPTIDE COMPOUND” (CHUGAI SEIYAKU KABUSHIKI KAISHA, priority 2021, published 2024).
Bridge positions count the residues as written; N and C are the ends. Square brackets hold non-standard residues; d marks the D form. Peptide text beside a SMILES is read from it. * marks the point of attachment. hPhe(3,5-F2-4-CF3) = N[C@@H](CCc1cc(F)c(C(F)(F)F)c(F)c1)C(=O)O; hPhe(3-Cl-4-CF3) = N[C@@H](CCc1ccc(C(F)(F)F)c(Cl)c1)C(=O)O; hPhe(3-F,4-CF3) = N[C@@H](CCc1ccc(C(F)(F)F)c(F)c1)C(=O)O; NEtPhe(4-CF3) = CCN[C@@H](Cc1ccc(C(F)(F)F)cc1)C(=O)O; NMePhe(4-CF3) = CN[C@@H](Cc1ccc(C(F)(F)F)cc1)C(=O)O; 3Oxa8azabicyclo(3.2.1)octane = C1CC2COCC1N2*; NEtPhe(4-Me) = CCN[C@@H](Cc1ccc(C)cc1)C(=O)O; NMePhe(3-Me) = CN[C@@H](Cc1cccc(C)c1)C(=O)O; NMePhe(4-Me) = CN[C@@H](Cc1ccc(C)cc1)C(=O)O; NMeAla(cPent) = CN[C@@H](CC1CCCC1)C(=O)O; NMeGly(cPent) = CN[C@H](C(=O)O)C1CCCC1; Pro(4,4-F2) = O=C(O)[C@@H]1CC(F)(F)CN1; NMe3Pal = CN[C@@H](Cc1cccnc1)C(=O)O; NMeCha = CN[C@@H](CC1CCCCC1)C(=O)O; Hyp = O=C(O)[C@@H]1C[C@@H](O)CN1; NMeChg = CN[C@H](C(=O)O)C1CCCCC1; NMeI = CC[C@H](C)[C@H](NC)C(=O)O; N(CH2CH2)2CF2 = FC1(F)CCN(*)CC1; Gly(cPr) = N[C@H](C(=O)O)C1CC1; NMeD = CN[C@@H](CC(=O)O)C(=O)O; dNMeD = CN[C@H](CC(=O)O)C(=O)O; NMeL = CN[C@@H](CC(C)C)C(=O)O; NMeNva = CCC[C@H](NC)C(=O)O; NMeV = CN[C@H](C(=O)O)C(C)C; d(β3hA) = C[C@@H](N)CC(=O)O; Azetidin(1-yl) = C1CN(*)C1; NMeAbu = CC[C@H](NC)C(=O)O; Morpholide = C1CN(*)CCO1; NMeA = CN[C@@H](C)C(=O)O; Piperidide = C1CCN(*)CC1; Pyrrolidide = C1CCN(*)C1; Ac5c = NC1(C(=O)O)CCCC1; Aze = O=C(O)[C@@H]1CCN1; Sar = CNCC(=O)O

What was measured:
[1] = molecular target: protein-protein interaction between Kras and SOS1 (biotin-tagged human Kras loaded with GDP, His-tagged human SOS1) (Homo sapiens (Human), UniProt P01116, G12D); assay: Protein-protein interaction inhibition between Kras and SOS1 (KrasG12D-SOS PPI) using AlphaScreen; assay type: biochemical; details: AlphaScreen; biotin-tagged human Kras loaded with GDP, His-tagged human SOS1; read-out: KRAS G12D-SOS PPI IC50;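 note: kras produced in E. coli, Ni-coupled donor beads and streptavidin acceptor beads, excitation 680 nm with emission detected at 520–620 nm via singlet oxygen transfer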
[2] = tested on: Human pancreatic cancer cell line AsPC-1 (G12D mutation Kras); assay: AsPC-1 cell growth inhibition (AsPC-1 CGI); assay type: cell-based; details: read-out: AsPC-1 cell growth inhibition, 50% growth inhibitory concentration (IC50 value); 96 hours, CellTiter-Glo, values classified in ranges

| Structure (SMILES) | IC50 [1] [nM] | IC50 [2] [nM] |
| --- | --- | --- |
| CC[C@H](C)[C@@H]1NC(=O)[C@H](CC(C)C)N(C)C(=O)C[C@@H](C(=O)N2CCCC2)N(C)C(=O)[C@H](C2CCCC2)N(C)C(=O)C2(CCCC2)NC(=O)[C@@H]2CCCN2C(=O)[C@H](CCc2ccc(C(F)(F)F)c(F)c2)NC(=O)CN(C)C(=O)[C@H](Cc2ccc(C)cc2)N(C)C(=O)[C@@H]2CCN2C(=O)[C@H](C)N(C)C1=O [Compound 20] ([NMeL]I[NMeA][Aze][NMePhe(4-Me)][Sar][hPhe(3-F,4-CF3)]P[Ac5c][NMeGly(cPent)][NMeD]-Pyrrolidide; lactam N-11) | 0.76 | ≤ 20 |
| CC[C@H](C)[C@@H]1NC(=O)[C@H](CC(C)C)N(C)C(=O)C[C@@H](C(=O)N2CCOCC2)N(C)C(=O)[C@H](C2CCCCC2)N(C)C(=O)C2(CCCC2)NC(=O)[C@H](Cc2cccnc2)N(C)C(=O)[C@H](CCc2ccc(C(F)(F)F)c(Cl)c2)NC(=O)CN(C)C(=O)[C@H](CC2CCCCC2)N(C)C(=O)CN(C)C(=O)CN(C)C1=O [Compound 1745] ([NMeL]I[Sar][Sar][NMeCha][Sar][hPhe(3-Cl-4-CF3)][NMe3Pal][Ac5c][NMeChg][NMeD]-Morpholide; lactam N-11) | 1.3 | > 500 |
| CC[C@H](C)[C@@H]1NC(=O)[C@H](C)N(C)C(=O)C[C@@H](C)NC(=O)[C@H](C2CCCC2)N(C)C(=O)C2(CCCC2)NC(=O)[C@@H]2CCCN2C(=O)[C@H](CCc2ccc(C(F)(F)F)c(Cl)c2)NC(=O)CN(C)C(=O)[C@H](Cc2cccc(C)c2)N(C)C(=O)[C@@H]2CCCN2C(=O)CN(C)C1=O [Compound 1083] (cyclo([Ac5c][NMeGly(cPent)][d(β3hA)][NMeA]I[Sar]P[NMePhe(3-Me)][Sar][hPhe(3-Cl-4-CF3)]P)) | 19 | > 500 |
| CCC[C@H]1C(=O)N[C@@H]([C@@H](C)CC)C(=O)N(C)[C@@H](C)C(=O)N2CC[C@H]2C(=O)N(C)[C@@H](CC2CCCCC2)C(=O)N(C)CC(=O)N[C@@H](CCc2ccc(C(F)(F)F)c(Cl)c2)C(=O)N2CCC[C@H]2C(=O)NC2(CCCC2)C(=O)N(C)[C@@H]([C@@H](C)CC)C(=O)N(C)[C@H](C(=O)N2CCCCC2)CC(=O)N1C [Compound 1132] ([NMeNva]I[NMeA][Aze][NMeCha][Sar][hPhe(3-Cl-4-CF3)]P[Ac5c][NMeI][NMeD]-Piperidide; lactam N-11) | 1.3 | ≤ 20 |
| CC[C@H](C)[C@@H]1NC(=O)[C@H](CC(C)C)N(C)C(=O)C[C@@H](C(=O)N2CCOCC2)N(C)C(=O)[C@H](C2CCCC2)N(C)C(=O)C2(CCCC2)NC(=O)[C@@H]2CCCN2C(=O)[C@H](CCc2ccc(C(F)(F)F)c(F)c2)NC(=O)CN(C)C(=O)[C@H](C2CCCC2)N(C)C(=O)[C@@H]2CCN2C(=O)[C@H](C)N(C)C1=O [Compound 871] ([NMeL]I[NMeA][Aze][NMeGly(cPent)][Sar][hPhe(3-F,4-CF3)]P[Ac5c][NMeGly(cPent)][NMeD]-Morpholide; lactam N-11) | 0.78 | ≤ 20 |
| CC[C@H](C)[C@@H]1NC(=O)[C@H](C)N(C)C(=O)C[C@@H](C(=O)N2CCCCC2)N(C)C(=O)[C@H](C(C)C)N(C)C(=O)C2(CCCC2)NC(=O)[C@@H](CC(=O)N2CCC(F)(F)CC2)N(C)C(=O)[C@H](CCc2ccc(C(F)(F)F)c(Cl)c2)NC(=O)CN(C)C(=O)[C@H](CC2CCCCC2)N(C)C(=O)CN(C)C(=O)CN(C)C1=O [Compound 1025] ([NMeA]I[Sar][Sar][NMeCha][Sar][hPhe(3-Cl-4-CF3)][dNMeD](N(CH2CH2)2CF2)[Ac5c][NMeV][NMeD]-Piperidide; lactam N-11) | 4.3 | > 500 |
| CC[C@H](C)[C@@H]1NC(=O)[C@H](CC(C)C)N(C)C(=O)C[C@@H](C(=O)N2CCOCC2)N(C)C(=O)[C@H](C2CCCC2)N(C)C(=O)C2(CCCC2)NC(=O)[C@@H]2CCCN2C(=O)[C@H](CCc2cc(F)c(C(F)(F)F)c(F)c2)NC(=O)CN(C)C(=O)[C@H](CC2CCCCC2)N(C)C(=O)[C@@H]2CCN2C(=O)[C@H](C)N(C)C1=O [Compound 1308] ([NMeL]I[NMeA][Aze][NMeCha][Sar][hPhe(3,5-F2-4-CF3)]P[Ac5c][NMeGly(cPent)][NMeD]-Morpholide; lactam N-11) | 0.65 | ≤ 20 |
| CCO[C@@H]1C[C@H]2C(=O)NC3(CCCC3)C(=O)N(C)[C@@H](C3CCCC3)C(=O)N(C)[C@H](C(=O)N3CCCC3)CC(=O)N(C)[C@@H](CC(C)C)C(=O)N[C@@H]([C@@H](C)CC)C(=O)N(C)CC(=O)N(C)CC(=O)N(C)[C@@H](CC3CCCCC3)C(=O)N(C)CC(=O)N[C@@H](CCc3cc(F)c(C(F)(F)F)c(F)c3)C(=O)N2C1 [Compound 1162] ([NMeL]I[Sar][Sar][NMeCha][Sar][hPhe(3,5-F2-4-CF3)][Hyp](Et)[Ac5c][NMeGly(cPent)][NMeD]-Pyrrolidide; lactam N-11) | 0.57 | ≤ 20 |
| CC[C@H](C)[C@@H]1NC(=O)[C@H](C)N(C)C(=O)C[C@@H](C(=O)N2CCCCC2)N(C)C(=O)[C@H](C(C)C)N(C)C(=O)C2(CCCC2)NC(=O)[C@@H]2CCCN2C(=O)[C@H](CCc2ccc(C(F)(F)F)c(Cl)c2)NC(=O)CN(C)C(=O)[C@H](CC2CCCCC2)N(C)C(=O)[C@@H]2CCN2C(=O)[C@H](CC2CCCC2)N(C)C1=O [Compound 1566] ([NMeA]I[NMeAla(cPent)][Aze][NMeCha][Sar][hPhe(3-Cl-4-CF3)]P[Ac5c][NMeV][NMeD]-Piperidide; lactam N-11) | 20 | > 500 |
| CC[C@H](C)[C@@H]1NC(=O)[C@H](CC(C)C)N(C)C(=O)C[C@@H](C(=O)N2CCOCC2)N(C)C(=O)[C@H]([C@@H](C)CC)N(C)C(=O)C2(CCCC2)NC(=O)[C@@H]2CCCN2C(=O)[C@H](CCc2ccc(C(F)(F)F)c(Cl)c2)NC(=O)CN(C)C(=O)[C@H](Cc2ccc(C(F)(F)F)cc2)N(CC)C(=O)[C@@H]2CCN2C(=O)[C@H](C)N(C)C1=O [Compound 1312] ([NMeL]I[NMeA][Aze][NEtPhe(4-CF3)][Sar][hPhe(3-Cl-4-CF3)]P[Ac5c][NMeI][NMeD]-Morpholide; lactam N-11) | 0.74 | ≤ 20 |
| CC[C@H](C)[C@@H]1NC(=O)[C@H](CC(C)C)N(C)C(=O)C[C@@H](C(=O)N2CCC2)N(C)C(=O)[C@H](C2CCCC2)N(C)C(=O)C2(CCCC2)NC(=O)[C@@H]2CC(F)(F)CN2C(=O)[C@H](CCc2ccc(C(F)(F)F)c(Cl)c2)NC(=O)CN(C)C(=O)[C@H](CC2CCCCC2)N(C)C(=O)[C@@H]2CCN2C(=O)[C@H](C)N(C)C1=O [Compound 1283] ([NMeL]I[NMeA][Aze][NMeCha][Sar][hPhe(3-Cl-4-CF3)][Pro(4,4-F2)][Ac5c][NMeGly(cPent)][NMeD]-{Azetidin(1-yl)}; lactam N-11) | 0.63 | ≤ 20 |
| CC(C)C[C@H]1C(=O)N[C@@H](C2CC2)C(=O)N(C)[C@@H](C)C(=O)N2CC[C@H]2C(=O)N(C)[C@@H](CC2CCCCC2)C(=O)N(C)CC(=O)N[C@@H](CCc2ccc(C(F)(F)F)c(Cl)c2)C(=O)N2CCC[C@H]2C(=O)NC2(CCCC2)C(=O)N(C)[C@@H](C(C)C)C(=O)N(C)[C@H](C(=O)N2CCCCC2)CC(=O)N1C [Compound 280] ([NMeL][Gly(cPr)][NMeA][Aze][NMeCha][Sar][hPhe(3-Cl-4-CF3)]P[Ac5c][NMeV][NMeD]-Piperidide; lactam N-11) | 24 | > 500 |
| CC[C@H](C)[C@@H]1NC(=O)[C@H](CC(C)C)N(C)C(=O)C[C@@H](C(=O)N2CCOCC2)N(C)C(=O)[C@H]([C@@H](C)CC)N(C)C(=O)C2(CCCC2)NC(=O)[C@@H]2CCCN2C(=O)[C@H](CCc2ccc(C(F)(F)F)c(Cl)c2)NC(=O)CN(C)C(=O)[C@H](Cc2ccc(C)cc2)N(CC)C(=O)[C@@H]2CCN2C(=O)[C@H](C)N(C)C1=O [Compound 1322] ([NMeL]I[NMeA][Aze][NEtPhe(4-Me)][Sar][hPhe(3-Cl-4-CF3)]P[Ac5c][NMeI][NMeD]-Morpholide; lactam N-11) | 0.82 | ≤ 20 |
| CC[C@H](C)[C@@H]1NC(=O)[C@H](CC(C)C)N(C)C(=O)C[C@@H](C(=O)N2C3CCC2COC3)N(C)C(=O)[C@H](C2CCCC2)N(C)C(=O)C2(CCCC2)NC(=O)[C@@H]2CCCN2C(=O)[C@H](CCc2ccc(C(F)(F)F)c(Cl)c2)NC(=O)CN(C)C(=O)[C@H](Cc2ccc(C(F)(F)F)cc2)N(C)C(=O)[C@@H]2CCN2C(=O)[C@H](C)N(C)C1=O [Compound 422] ([NMeL]I[NMeA][Aze][NMePhe(4-CF3)][Sar][hPhe(3-Cl-4-CF3)]P[Ac5c][NMeGly(cPent)][NMeD]-{3Oxa8azabicyclo(3.2.1)octane}; lactam N-11) | 0.87 | ≤ 20 |
| CC[C@H](C)[C@@H]1NC(=O)[C@H](CC(C)C)N(C)C(=O)C[C@@H](C(=O)N2CCCCC2)N(C)C(=O)[C@H](C(C)C)N(C)C(=O)C2(CCCC2)NC(=O)[C@@H]2CCCN2C(=O)[C@H](CCc2ccc(C(F)(F)F)c(Cl)c2)NC(=O)CN(C)C(=O)[C@H](CC)N(C)C(=O)[C@@H]2CCN2C(=O)[C@H](C)N(C)C1=O [Compound 1752] ([NMeL]I[NMeA][Aze][NMeAbu][Sar][hPhe(3-Cl-4-CF3)]P[Ac5c][NMeV][NMeD]-Piperidide; lactam N-11) | 17 | > 500 |
| CC[C@H](C)[C@@H]1NC(=O)[C@H](CC(C)C)N(C)C(=O)C[C@@H](C(=O)N2CCCCC2)N(C)C(=O)[C@H](C(C)C)N(C)C(=O)[C@@H](C)NC(=O)[C@@H]2CCCN2C(=O)[C@H](CCc2ccc(C(F)(F)F)c(Cl)c2)NC(=O)CN(C)C(=O)[C@H](CC2CCCCC2)N(C)C(=O)[C@@H]2CCN2C(=O)[C@H](C)N(C)C1=O [Compound 1174] ([NMeL]I[NMeA][Aze][NMeCha][Sar][hPhe(3-Cl-4-CF3)]P[dA][NMeV][NMeD]-Piperidide; lactam N-11) | 62 | > 500 |
